Test results reported in ChEMBL document CHEMBL1144436, “1-(Phenyl)isoquinoline carboxamides: a novel class of subtype selective inhibitors of thyrotropin-releasing hormone (TRH) receptors” (Bioorg Med Chem Lett, 2005).
Values joined by “and” are separate entries in the source; they are usually repeats but may differ in a detail not shown here. Equal entries are not always repeated.

target: T1, Thyrotropin-releasing hormone receptor (Mus musculus) (UniProt P21761); experiment: Displacement of [3H]MeTRH from Thyrotropin releasing hormone receptor 1 was measured; expressed as %
T1 sequence (whole entry): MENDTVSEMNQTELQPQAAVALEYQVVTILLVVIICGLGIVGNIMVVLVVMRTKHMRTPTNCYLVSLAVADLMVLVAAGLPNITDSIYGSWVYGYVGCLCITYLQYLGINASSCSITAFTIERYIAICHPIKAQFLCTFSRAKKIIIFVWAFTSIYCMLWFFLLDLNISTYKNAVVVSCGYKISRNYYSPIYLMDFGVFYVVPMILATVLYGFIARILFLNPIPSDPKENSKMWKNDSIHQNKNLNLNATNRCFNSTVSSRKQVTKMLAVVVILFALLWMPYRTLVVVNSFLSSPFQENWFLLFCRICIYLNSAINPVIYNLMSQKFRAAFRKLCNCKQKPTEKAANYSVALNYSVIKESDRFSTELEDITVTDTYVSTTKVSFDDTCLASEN

SMILES | Competition
CCCCN(C)C(=O)c1cc2ccccc2c(-c2ccccc2Cl)n1 | 84% and 92%
CCC(C)N(C)C(=O)c1cc2ccccc2c(-c2ccccc2Cl)n1 (stereo in doubt) | 44% and 56%
CCC(C)N(C)C(=O)c1cc2ccccc2c(-c2ccccc2Cl)n1 (stereo in doubt; 10) | 73% and 90%

The next lines start with the values.

Competition | SMILES
78% and 91% | CCCNC(=O)c1cc2ccccc2c(-c2ccccc2Cl)n1
21% and 31% | CCC(C)NC(=O)c1cc2ccccc2c(-c2cccc([N+](=O)[O-])c2)n1 (configuration not stated)
16% and 40% | CCC(C)NC(=O)c1cc2ccccc2c(-c2ccc([N+](=O)[O-])cc2)n1 (configuration not stated)
33% and 29% | CNC(=O)c1cc2ccccc2c(-c2ccccc2Cl)n1
